One series addresses T1, CRM1 (Homo sapiens, UniProt O14980).
T1 construct: endogenous in cells; host or cells: U2OS-RevGFP cells
In words: RevGFP assay: inhibition of CRM1 mediated nuclear export. Type of series: cell-based. The note with it: U2OS-RevGFP cells, ~1 hr with compound; read-out: Rev Export [IC50]. Here is the method: The inhibition of CRM1 mediated nuclear export by compounds of the invention was determined. The inhibitory activity of compounds for the CRM1 protein was determined in the RevGFP assay.
Experimental protocol: Rev is a protein from human immunodeficiency virus type 1 (HIV-1) and contains a nuclear export signal (NES) in its C-terminal domain and a nuclear localization signal (NLS) in its N-terminal domain. Nuclear export of Rev protein is dependent on the classical NES/CRM1 pathway (Neville et al, 1997, Kau et al, 2003). Nuclear accumulation of Rev is observed in cells treated with specific inhibitors of CRM1, such as LMB (Kau et al, 2003). In this assay, U2OS-RevGFP cells are seeded onto clear-bottom, black, 384-well plates the day before the experiment. Compounds are serially diluted 1:2 starting from 40 μM in a separate 384-well plate in DMEM, and then transferred onto cells. Cells are incubated with compound for ˜1 hr before fixation with 3.7% formaldehyde and nuclei staining with Hoechst 33258. The amount of GFP in cell nuclei was measured and compound IC50s were determined (Kau et al, 2003).

A short description of series [1]: MTT Cell Proliferation Assay (CellTiter 96 AQueous One Solution, MTS). It counts as cell-based. To be noted: human; 72 h treatment; cell line not given; read-out: Cytotoxicity [IC50]. From the text: The CellTiter 96® AQueous One Solution cell proliferation assay (Promega) was used on MM1.S, Jurkat and HCT-116 cells to study the cytotoxic and cytostatic properties of the compounds. The assay is based on the cleavage of the tetrazolium salt, MTS, in the presence of an electron-coupling reagent PES (phenazine ethosulfate). The MTS tetrazolium compound is bioreduced by cells into a colored formazan product that is soluble in tissue culture medium. This conversion is presumably accomplished by NADPH or NADH produced by dehydrogenase enzymes in metabolically active cells. Assays are performed by adding a small amount of the CellTiter 96® AQueous One solution reagent directly to culture wells, incubating for 1-4 hours and then recording the absorbance at 490 nm with a 96-well plate reader. […] The cells were seeded at 5×10^3 to 1.5×10^4 cells (depending on cell type) in each well of 96-well plate in 100 μL of fresh culture medium and adherent cells were allowed to attach for overnight. The stock solutions of the compounds were diluted in cell culture medium to obtain eight concentrations of each drug, ranging from 1 nM to 30 μM and DMSO at less than 1% v/v was used as a negative control. After 72 h of treatment 20 μl of CellTiter 96® AQueous reagent was added into each well of the 96-well assay plates and the plate was incubate at 37° C. for 1-4 hours in a humidified, 5% CO2 atmosphere. Then the absorbance of each well was recorded at 490 nm by using a 96-well plate reader. In most cases the assay was performed in triplicates and the results were presented as half maximal inhibitory concentration (IC50) described below. Optical density versus compound concentration was plotted and analyzed using non linear regression equations (Excel Fit) and the IC50 for each compound was calculated.

The nature of series [2]: Pharmacokinetics (plasma AUC) in mice. Type of series: in vivo. To be noted: mouse. Here is the method:
Blood was collected from mice (N=3) to contribute to the total of 10 time points (pre-dose, 5 min, 15 min, 30 min, 1 hour, 2 hours, 4 hours, 8 hours, 12 hours and 24 hours post dose). Mice were bled on a rotating basis, each mouse contributing 3 time points to the blood collection. At the designated time points, animals were anaesthetized under isoflurane, and approximately 110 μL of blood per time point was collected via retro-orbital puncture into pre-cooled K2EDTA (anti-coagulant) tubes. Blood samples were put on wet ice and centrifuged (2000 g, 5 min at 4° C.) to obtain plasma within 30 minutes of sample collection. All samples were stored frozen at approximately −80° C. until analysis. Prior to analysis, samples were mixed with internal standard (dexamethasone) in acetonitrile, vortexed, centrifuged, and supernatant was injected for analysis. Concentration of compounds in plasma was determined using LC-MS-MS instrumentation (API 4000, Triple Quadruple with electrospray ionization; Acuity Ultra Performance Liquid Chromatography column C18, with MeOH and formic acid as organic solvents). PK parameters including but not limited to Tmax, Cmax, t1/2, AUClast, AUCinf were calculated using WinNonlin Professional 6.2 software package, non-compartmental pharmacokinetic model NCA200.

The nature of series [3]: Brain to plasma ratio (B:P) in mice. It counts as in vivo. The note with it: for Kp at 2 h: mouse, brain and plasma, 10 mg/kg po, 2 hours post-dose. Here is the method: Brain tissue following collection was rinsed with cold saline, dried on filter paper, weighed and snap-frozen by placing on dry ice. All samples were stored frozen at approximately −80° C. until analysis. […] Plasma samples were treated with the identical method (except homogenization step) and concentration of compound in either matrix was calculated based on the generated standard curves.

pIC50: −log10 of the molar value.

The values below come from patent US9096543B2, “Nuclear transport modulators and uses thereof” (Karyopharm Therapeutics Inc., priority 2012, dated 2015).

T1 sequence (O14980 whole entry): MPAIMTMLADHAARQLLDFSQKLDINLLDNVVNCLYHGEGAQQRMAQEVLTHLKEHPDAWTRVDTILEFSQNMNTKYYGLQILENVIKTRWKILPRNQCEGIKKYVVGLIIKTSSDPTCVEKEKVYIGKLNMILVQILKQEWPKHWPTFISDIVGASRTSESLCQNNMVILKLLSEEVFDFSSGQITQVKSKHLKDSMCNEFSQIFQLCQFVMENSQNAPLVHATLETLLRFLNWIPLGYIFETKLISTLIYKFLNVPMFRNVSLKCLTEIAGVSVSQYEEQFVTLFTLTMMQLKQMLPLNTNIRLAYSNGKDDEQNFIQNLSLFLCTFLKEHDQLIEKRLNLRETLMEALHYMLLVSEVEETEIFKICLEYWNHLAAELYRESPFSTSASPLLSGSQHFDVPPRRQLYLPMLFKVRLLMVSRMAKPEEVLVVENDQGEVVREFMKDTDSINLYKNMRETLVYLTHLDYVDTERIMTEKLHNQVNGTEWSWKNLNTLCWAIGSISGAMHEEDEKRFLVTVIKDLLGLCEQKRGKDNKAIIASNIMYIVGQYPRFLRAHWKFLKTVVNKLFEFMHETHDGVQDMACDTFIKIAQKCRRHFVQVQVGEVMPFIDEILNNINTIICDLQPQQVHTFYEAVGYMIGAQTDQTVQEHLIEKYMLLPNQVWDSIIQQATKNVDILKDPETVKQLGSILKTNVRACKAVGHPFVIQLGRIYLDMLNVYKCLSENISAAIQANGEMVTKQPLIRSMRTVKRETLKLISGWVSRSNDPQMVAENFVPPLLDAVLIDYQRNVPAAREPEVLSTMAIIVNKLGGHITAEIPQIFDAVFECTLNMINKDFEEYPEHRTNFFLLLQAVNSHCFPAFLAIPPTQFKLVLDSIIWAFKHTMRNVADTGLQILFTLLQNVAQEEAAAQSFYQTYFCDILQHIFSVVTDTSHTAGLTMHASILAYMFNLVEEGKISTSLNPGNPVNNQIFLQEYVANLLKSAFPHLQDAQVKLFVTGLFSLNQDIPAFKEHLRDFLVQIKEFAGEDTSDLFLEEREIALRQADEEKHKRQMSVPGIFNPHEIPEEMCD

Turning to `Cc1[nH]ncc1C(=O)NNC(=O)/C=C\n1cnc(-c2cc(C(F)(F)F)cc(C(F)(F)F)c2)n1` [Compound 3, (Z)—N′-(3-(3-(3,5-bis(trifluoromethyl)phenyl)-1H-1,2,4-triazol-1-yl)acryloyl)-5-methyl-1H-pyrazole-4-carbohydrazide], the pIC50 (commonly the negative decadic logarithm of the IC50, by convention in mol/L) at CRM1 was more than 6.00. For the same compound, the IC50 – broadly, the midpoint of a concentration-inhibition curve – at 72 h in series [1] was less than 1 µM. Further, the AUC(0-inf) (as a rule, the area under the concentration-time curve extrapolated to infinity) in series [2] (10 mg/kg po) came out at 15200 ng·h/mL. Besides, in series [3], the partition ratio (Kp) (commonly tissue or fluid exposure divided by exposure in the circulation) at 2 h was 0.03.
For `O=C(/C=C\n1cnc(-c2cc(C(F)(F)F)cc(C(F)(F)F)c2)n1)NNC(=S)NC1CC1` [Compound 4, (Z)-2-(3-(3-(3,5-bis(trifluoromethyl)phenyl)-1H-1,2,4-triazol-1-yl)acryloyl)-N-cyclopropylhydrazinecarbothioamide], in series [1], the IC50 at 72 h is less than 1 µM. The compound also came in with an AUC(0-inf) in series [2] (10 mg/kg po) of 20900 ng·h/mL. Also, the partition ratio (Kp) at 2 h in series [3] turned out to be 0.028.
Consider `CN(NC(=O)/C=C\n1cnc(-c2cc(C(F)(F)F)cc(C(F)(F)F)c2)n1)C(=O)CN1CCOCC1` [Compound 5, (Z)-3-(3-(3,5-bis(trifluoromethyl)phenyl)-1H-1,2,4-triazol-1-yl)-N′-methyl-N′-(2-morpholinoacetyl)acrylohydrazide], for which the IC50 at 72 h in series [1] is less than 1 µM.
Same read-out and setting: then `O=C(/C=C\n1cnc(-c2cc(C(F)(F)F)cc(C(F)(F)F)c2)n1)NNC(=O)C1CCCNC1` (stereo not drawn) [Compound 6, (Z)—N′-(3-(3-(3,5-bis(trifluoromethyl)phenyl)-1H-1,2,4-triazol-1-yl)acryloyl)piperidine-3-carbohydrazide], with less than 1 µM; and `CC(C)[C@H](N)C(=O)NNC(=O)/C=C\n1cnc(-c2cc(C(F)(F)F)cc(C(F)(F)F)c2)n1` [Compound 7, (S,Z)-2-amino-N′-(3-(3-(3,5-bis(trifluoromethyl)phenyl)-1H-1,2,4-triazol-1-yl)acryloyl)-3-methylbutanehydrazide 2,2,2-trifluoroacetate], with less than 1 µM.
`O=C(/C=C\n1cnc(-c2cc(C(F)(F)F)cc(C(F)(F)F)c2)n1)NNC(=O)c1cnccn1` [Compound 8, (Z)—N′-(3-(3-(3,5-bis(trifluoromethyl)phenyl)-1H-1,2,4-triazol-1-yl)acryloyl)pyrazine-2-carbohydrazide]: the IC50 at 72 h in series [1] was less than 1 µM. For the same compound, the AUC(0-inf) in series [2] (10 mg/kg po) was 9150 ng·h/mL. The Kp at 2 h in series [3] is 0.41.
`CN1CCC(C(=O)NNC(=O)/C=C\n2cnc(-c3cc(C(F)(F)F)cc(C(F)(F)F)c3)n2)CC1` [Compound 9, (Z)—N′-(3-(3-(3,5-bis(trifluoromethyl)phenyl)-1H-1,2,4-triazol-1-yl)acryloyl)-1-methylpiperidine-4-carbohydrazide]: the IC50 at 72 h in series [1] is less than 1 µM. Further, the AUC(0-inf) in series [2] (5 mg/kg po) worked out at 671 ng·h/mL.
Turning to `CC(C)[C@@H](N)C(=O)NNC(=O)/C=C\n1cnc(-c2cc(C(F)(F)F)cc(C(F)(F)F)c2)n1` [Compound 10, (R,Z)-2-amino-N′-(3-(3-(3,5-bis(trifluoromethyl)phenyl)-1H-1,2,4-triazol-1-yl)acryloyl)-3-methylbutanehydrazide 2,2,2-trifluoroacetate], the IC50 at 72 h in series [1] is less than 1 µM.
With `O=C(/C=C\n1cnc(-c2cc(C(F)(F)F)cc(C(F)(F)F)c2)n1)NNC(=O)Cc1cnccn1` [Compound 11, (Z)-3-(3-(3,5-bis(trifluoromethyl)phenyl)-1H-1,2,4-triazol-1-yl)-N′-(2-(pyrazin-2-yl)acetyl)acrylohydrazide], the IC50 at 72 h in series [1] was less than 1 µM. In series [2] (10 mg/kg po), the AUC(0-inf) is 8340 ng·h/mL. Also, the Kp at 2 h in series [3] worked out at 0.095.
Regarding `O=C(/C=C\n1cnc(-c2cc(C(F)(F)F)cc(C(F)(F)F)c2)n1)NNC(=O)C(=O)N1CCOCC1` [Compound 12, (Z)-3-(3-(3,5-bis(trifluoromethyl)phenyl)-1H-1,2,4-triazol-1-yl)-N′-(2-morpholino-2-oxoacetyl)acrylohydrazide], the pIC50 at CRM1 was more than 6.00. Further, the IC50 at 72 h in series [1] was less than 1 µM. Also, in series [2] (10 mg/kg po), the AUC(0-inf) came to 19600 ng·h/mL. For the same compound, in series [3], the Kp at 2 h worked out at 0.06.
`CC1COCC(C)N1CC(=O)NNC(=O)/C=C\n1cnc(-c2cc(C(F)(F)F)cc(C(F)(F)F)c2)n1` (stereo not drawn) [Compound 13, (Z)-3-(3-(3,5-bis(trifluoromethyl)phenyl)-1H-1,2,4-triazol-1-yl)-N′-(2-(3,5-dimethylmorpholino)acetyl)acrylohydrazide]: in series [1], the IC50 at 72 h was less than 1 µM. The AUC(0-inf) in series [2] (10 mg/kg po) came out at 1100 ng·h/mL. Moreover, the Kp at 2 h in series [3] came to 1.5.
The matching figures for `O=C(/C=C\n1cnc(-c2cc(C(F)(F)F)cc(C(F)(F)F)c2)n1)NNC(=O)CN1CCOCC1=O` [Compound 14, (Z)-3-(3-(3,5-bis(trifluoromethyl)phenyl)-1H-1,2,4-triazol-1-yl)-N′-(2-(3-oxomorpholino)acetyl)acrylohydrazide]: less than 1 µM, 1420 ng·h/mL and 0.
Take `CC1(C)COCCN1CC(=O)NNC(=O)/C=C\n1cnc(-c2cc(C(F)(F)F)cc(C(F)(F)F)c2)n1` [Compound 15, (Z)-3-(3-(3,5-bis(trifluoromethyl)phenyl)-1H-1,2,4-triazol-1-yl)-N′-(2-(3,3-dimethylmorpholino)acetyl)acrylohydrazide]: in series [1], the IC50 at 72 h is less than 1 µM. This compound also yielded an AUC(0-inf) in series [2] (10 mg/kg po) of 588 ng·h/mL. Further, the Kp at 2 h in series [3] turned out to be 0.
Regarding `COc1cc(-c2ncn(/C=C\C(=O)OC(C)C)n2)cc(C(F)(F)F)c1` [Compound X-1, reference compound], the pIC50 on CRM1 is more than 6.00. For the same compound, the IC50 at 72 h in series [1] is less than 1 µM. In addition, the AUC(0-inf) in series [2] (5 mg/kg iv) was determined as 209 ng·h/mL. Also, in series [3] (dosed po), the “levels in the brain” value is “below the quantitation limit”.
